Assays:
[1] = test system: white blood cell (WBC) count
Protocol: Eight patients received AMD-3100 at infusion dose rates of 2.5 μg/kg/hr (patients 1-4) and 5.0 μg/kg/hr (patients 5-8).

[2] = test system: white blood cell (WBC) count; remark: listed apart in the source
Protocol: Eleven human patients having initial white blood cell counts of 4,000-6,500 cells/mm^3 were used in the study. An intravenous dosing solution of AMD3100 (i.e., 1,1′-[1,4-phenylene-bis(methylene)]-bis-1,4,8,11-tetraazacyclotetradecane) were prepared from a stock solution which is a 1 mg/ml 1:10 dilution of a concentrate in 0.9% saline (normal saline) under sterile conditions. Aliquots from this stock solution were added to 50-ml bags of 0.9% saline for intravenous injection in amounts to achieve the desired dosage levels (10 μg/kg-80 μg/kg).
The subjects described in this example already contained an indwelling peripheral intravenous catheter. The prescribed amount of AMD3100 was administered over 15 minutes by intravenous fusion in a single dose. Blood samples were obtained prior to the dose, and at various times up to 24 hours after dose administration.
Eleven human subjects received intravenous administration of AMD-3100 at doses 10, 20, 40, and 80 μg/kg. Five subjects also received a single subcutaneous injection of AMD-3100 at doses of 40 and 80 μg/kg. Three patients were administered dosages of 10 μg/kg (open circles); 3 patients were administered dosages of 20 μg/kg (solid circles); 3 patients were administered 40 μg/kg (open triangles); and 2 patients were administered 80 μg/kg (closed triangles).

Q: For `c1cc(CN2CCCNCCNCCCNCC2)ccc1CN1CCCNCCNCCCNCC1` [AMD3100, 1,1′-[1,4-phenylene-bis(methylene)]-bis-1,4,8,11-tetraazacyclotetradecane], which “time for WBC counts to return to baseline after discontinuation of the infusion” value ([1]; continuous infusion 2.5 or 5.0 μg/kg/hr for up to 10 days, HIV-infected patients) is on record?
A: 7 days

Q: And the “ability to enhance WBC count in human patients” value ([1]; following single dose or with continuous infusion)?
A: consistently able to enhance WBC count

Q: What about the “effect on white blood cell count after administration” value ([2]; all 11 patients, 10, 20, 40, 80 μg/kg i.v. over 15 minutes, single dose, over the succeeding 5-10 hours, tapered off after about 24 hours, not returning to original level) of the same molecule?
A: marked increase in white blood cell count

Q: What about the “white blood cell count, peak value” ([2]; one patient who received 80 μg/kg i.v., from 6,000 cells/mm^3 before dose) of the same molecule?
A: 19,000 cells/mm^3

Q: What about the “white blood cell count after increase” value ([2]; patient showing the least response, 20 μg/kg i.v., from about 6,300 cells/mm^3) of the same molecule?
A: about 9,000 cells/mm^3
